Assay results: patent US20170369475A1, “Flibanserin Hydrate” (Sandoz AG, priority 2016, published 2017)
Entries after “also recorded” stand apart in the source; their conditions may differ.

Experiment: Gravimetric moisture sorption (GMS)
Format: physicochemical
Conditions: 25±0.1° C.
Description: Moisture sorption isotherms were recorded with an SPSx-1 μ moisture sorption analyzer (ProUmid, Ulm). The measurement cycle was started at ambient relative humidity (RH) of 30%. RH was then decreased to 5% in 5% steps, followed by a further decrease to 3% and to 0%. […] Finally, RH was increased to ambient relative humidity of 30% in 5% steps.
The time per step was set to a minimum of 2 hours and a maximum of 6 hours. If an equilibrium condition with a constant mass of ±0.01% within 1 hour was reached before the maximum time for all examined samples the sequential humidity step was applied before the maximum time of 6 hours. If no equilibrium was achieved the consecutive humidity step was applied after the maximum time of 6 hours. The temperature was 25±0.1° C.
Therefore, flibanserin hydrate of the present invention can be assigned as being non-hygroscopic.

For O=c1[nH]c2ccccc2n1CCN1CCN(c2cccc(C(F)(F)F)c2)CC1 [flibanserin hydrate], the “hysteresis between sorption and desorption isotherms” value (GMS, 0 to 95% RH) was “no significant hysteresis”, the “hygroscopicity / water uptake or loss (in words)” value (GMS, 0 to 95% RH, hydrate) was “neither significant water uptake nor loss; also recorded: non-hygroscopic” and the “physical form after the GMS experiment (PXRD)” value (after sorption/desorption cycle 0-95-0% RH) was “same PXRD”. The “mass difference between 0 and 95% RH (equilibrium mass change, GMS)” value (sorption/desorption cycle 0-95% RH) was 0.2 weight %.
